From patent US7259271B2, “Peripherally-selective inhibitors of dopamine-β-hydroxylase and method of their preparation” (Portela & C.A., S.A., priority 2002, dated 2007)

What was measured:
[1] = test system: noradrenaline tissue levels; assay: Noradrenaline tissue levels in heart and brain of mice after oral administration; assay type: in vivo, mouse; settings: for recovery of initial noradrenaline tissue levels: mouse heart, at 24 h; for recovery of initial noradrenaline tissue levels / Time of maximum effect (Tmax) for noradrenaline tissue reduction / duration of action in the heart: 100 mg/kg oral; for Time of maximum effect (Tmax) for noradrenaline tissue reduction / dose at which the maximal inhibitory effect was attained: mouse left ventricle; for dose at which the maximal inhibitory effect was attained / noradrenaline levels in left ventricle / noradrenaline tissue levels in the brain parietal cortex: 9 h after oral administration; for duration of action in the heart / noradrenaline levels in left ventricle / noradrenaline tissue levels in the brain parietal cortex: mouse; for duration of action in the heart: time course
Method: (§1) Male NMRI mice or Wistar rats were obtained from Harlan-lnterfauna (Spain) and were kept 10 and 5 per cage respectively, under controlled environmental conditions (12 h light/dark cycle and room temperature 22±1° C.). Food and tap water were allowed ad libitum and experimentation was performed during daylight hours.
(§2) At time =0 h, animals were administered with either test compounds at a given dose or vehicle (water) delivered orally via gavage. At 2, 6, 9, 12, 18 and 24 h post dose, the animals were sacrificed by decapitation and heart (left atrium and left ventricle) and brain (frontal and parietal cortex) were isolated, weighed and stored in a volume of 0.2 M perchloric acid for 12 h at 4° C. in the dark. Post incubation, the resulting supernatants were collected by centrifuge filtration of incubates ([…]/10 min/˜5000 rpm, 4° C.). Supernatants were stored frozen at −80° C. until analysis. Quantification of dopamine and noradrenaline in supernatants was performed by high pressure liquid chromatography with electrochemical detection.

[2] = prior art finding; cited from earlier work
human DβH = biological target: T1, human DβH (Homo sapiens, UniProt P09172); assay: DβH activity (β-hydroxylation of dopamine to noradrenaline) in SK-N-SH cells; assay type: cell-based; settings: for remaining activity at 5 µM: SK-N-SH, 0.75 h, read-out: DβH activity in SK-N-SH cells, Mean ± SEM; for IC50 values against human DβH activity (in words): concentration-dependent decrease in β-hydroxylation of dopamine; for IC50: read-out: IC50 for inhibition of DβH in SK-N-SH cells; for inhibition of DβH activity (in words): 5 μM, as listed in Table 1
T1 construct: SK-N-SH cells (ATCC HTB-11), a human neuroblastoma derived cell line, were used as a source of human DβH; host or cells: SK-N-SH cells
T1 sequence (P09172 1-617): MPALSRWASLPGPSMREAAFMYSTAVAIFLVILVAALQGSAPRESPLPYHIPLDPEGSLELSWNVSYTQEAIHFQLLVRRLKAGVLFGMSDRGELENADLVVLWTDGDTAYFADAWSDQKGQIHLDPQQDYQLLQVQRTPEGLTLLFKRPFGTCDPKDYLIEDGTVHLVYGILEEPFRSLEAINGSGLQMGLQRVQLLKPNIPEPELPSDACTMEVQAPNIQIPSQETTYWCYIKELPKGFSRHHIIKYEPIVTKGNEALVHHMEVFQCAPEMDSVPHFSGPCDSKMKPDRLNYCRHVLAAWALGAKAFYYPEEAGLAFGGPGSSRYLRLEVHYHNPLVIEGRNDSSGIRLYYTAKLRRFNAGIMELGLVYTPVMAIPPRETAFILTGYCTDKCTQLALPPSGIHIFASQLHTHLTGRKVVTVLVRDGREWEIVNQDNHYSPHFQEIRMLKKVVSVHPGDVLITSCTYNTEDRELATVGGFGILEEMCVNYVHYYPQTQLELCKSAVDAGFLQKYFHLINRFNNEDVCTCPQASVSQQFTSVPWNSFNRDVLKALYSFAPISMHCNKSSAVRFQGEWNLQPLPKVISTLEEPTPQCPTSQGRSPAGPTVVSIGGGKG
Method: SK-N-SH cells (ATCC HTB-11), a human neuroblastoma derived cell line, were used as a source of human DβH. SK-N-SH cells cultured in 24 well plates were preincubated for 20 min in a reaction medium containing 200 mM sodium acetate, 30 mM N-ethylmaleimide, 5 μM copper sulphate, 0.5 mg/ml catalase aqueous solution, 1 mM pargyline, 10 mM sodium fumarate and 20 mM ascorbic acid. […] During preincubation and incubation, the cells were continuously shaken and maintained at 37° C. The reaction was terminated by the addition of 0.2 M perchloric acid. The acidified samples were stored at 4° C. before injection into the high pressure liquid chromatograph for the assay of noradrenaline.

[3] = test system: noradrenaline tissue levels; assay: Noradrenaline tissue levels in heart and brain of rats after oral administration; assay type: in vivo; settings: rat; for noradrenaline tissue levels in brain parietal cortex and brain frontal cortex: 9 h after oral administration; for dose dependence of effects upon noradrenaline / time of maximum effect upon noradrenaline: oral
Method: as §1, §2

SMILES	recovery of initial noradrenaline tissue levels [1] [%]	Time of maximum effect (Tmax) for noradrenaline tissue reduction [1] [h]	dose at which the maximal inhibitory effect was attained [1] [mg/kg]	duration of action in the heart [1]	noradrenaline levels in left ventricle [1]	noradrenaline tissue levels in the brain parietal cortex [1]	crossing of the blood brain barrier (BBB) [2]	remaining activity at 5 µM (human DβH) [%]	IC50 values against human DβH activity (in words) (human DβH)	IC50 (human DβH) [nM]	noradrenaline tissue levels in brain parietal cortex and brain frontal cortex [3]	dose dependence of effects upon noradrenaline [3]	time of maximum effect upon noradrenaline [3] [h]	inhibition of DβH activity (in words) (human DβH)	inhibitory effects upon noradrenaline levels in left atrium and left ventricle ([3]; 100 mg/kg oral, 9 h)
NCc1c[nH]c(=S)n1[C@H]1CCc2c(F)cc(F)cc2C1 [Compound 1, nepicastat, reference compound]	50	9	100	long acting	dose-dependent manner	dose-dependent decrease	cross the blood brain barrier	0	low nM range	36	marked decrease	dependent on the dose administered	9	–	–
Cl.NCCc1c[nH]c(=S)n1[C@H]1COc2c(F)cc(F)cc2C1 [Compound 4, (R)-5-(2-aminoethyl)-1-(6,8-difluorochroman-3-yl)-1,3-dihydroimidazole-2-thione hydrochloride]	50	9	100	long acting	dose-dependent manner	failed to affect	–	3.3 ± 0.3	low nM range	105	failed to affect	dependent on the dose administered	9	markedly inhibit	more pronounced than those elicited by 1
CNCCc1c[nH]c(=S)n1[C@H]1COc2c(F)cc(F)cc2C1.Cl [Compound 28, (R)-1-(6,8-Difluorochroman-3-yl)-5-(2-methylaminoethyl)-1,3-dihydroimidazole-2-thione hydrochloride]	–	–	–	–	–	–	–	2.6 ± 1.6	–	–	–	–	–	markedly inhibit	–
CNCCc1c[nH]c(=S)n1[C@H]1COc2ccccc2C1.Cl [Compound 29, (R)-1-Chroman-3-yl-5-(2-methylaminoethyl)-1,3-dihydroimidazole-2-thione hydrochloride]	–	–	–	–	–	–	–	2.2 ± 2.5	–	–	–	–	–	markedly inhibit	–
